ChEMBL document CHEMBL5352419, “Design, synthesis, and biological evaluation of tetrahydroquinoline amphiphiles as membrane-targeting antimicrobials against pathogenic bacteria and fungi” (Eur J Med Chem, 2022)
Values after ≈ are worked out from the molar mass of the structure shown.

How the values were obtained:
[1] = test system: Staphylococcus aureus; experiment: Antimicrobial activity against methicillin-resistant Staphylococcus aureus NCTC10442 assessed as bacterial growth inhibition incubated for 24 hrs by Muller Hinton broth based dilution assay; type: functional
[2] = Hemolytic activity in rabbit RBC incubated for 1 hr by absorbance based microplate reader assay; type: toxicity, cell-based, Oryctolagus cuniculus, Erythrocyte; conditions: rabbit red blood cells (erythrocytes)
[3] = test system: Staphylococcus aureus; experiment: Antimicrobial activity against methicillin-resistant Staphylococcus aureus N315 assessed as bacterial growth inhibition incubated for 24 hrs by Muller Hinton broth based dilution assay; type: functional
[4] = test system: Candida albicans; experiment: Antimicrobial activity against Candida albicans CMCC98001 assessed as fungal growth inhibition incubated for 48 hrs by Sabouraud Dextrose broth based dilution assay; type: functional
[5] = test system: Candida albicans; experiment: Antimicrobial activity against Candida albicans ATCC10231 assessed as fungal growth inhibition incubated for 48 hrs by Sabouraud Dextrose broth based dilution assay; type: functional
[6] = test system: Staphylococcus aureus; experiment: Antimicrobial activity against Staphylococcus aureus ATCC29213 assessed as bacterial growth inhibition incubated for 24 hrs by Muller Hinton broth based dilution assay; type: functional
[7] = test system: Escherichia coli; experiment: Antimicrobial activity against Escherichia coli ATCC25922 assessed as bacterial growth inhibition incubated for 24 hrs by Muller Hinton broth based dilution assay; type: functional

SMILES | MIC [1] [µg/mL] | HC50 at 1 h [2] [µg/mL] | MIC [3] [µg/mL] | MIC [4] [µg/mL] | MIC [5] [µg/mL] | MIC [6] [µg/mL] | MIC [7] [µg/mL]
CC(C)=CCN1CCCc2cc(OCCCCCCCCCCBr)ccc21 | 3.12 (≈ 7.16 µM) | > 200 | 3.12 (≈ 7.16 µM) | 12.5 (≈ 28.6 µM) | 12.5 (≈ 28.6 µM) | 3.12 (≈ 7.16 µM) | 25 (≈ 57.3 µM)
CCN(CC)CCCCOc1ccc2c(c1)CCCN2CC=C(C)C | > 50 | > 200 | > 50 | > 50 | > 50 | > 50 | > 50
CC(C)=CCN1CCCc2cc(OCCCCN(C)C)ccc21 | 25 (≈ 79 µM) | > 200 | 25 (≈ 79 µM) | > 50 | > 50 | 25 (≈ 79 µM) | 25 (≈ 79 µM)
CC(C)=CCC/C(C)=C/CN1CCCc2cc(OCCCCCCCCBr)ccc21 | 6.25 (≈ 13.1 µM) | > 200 | 6.25 (≈ 13.1 µM) | 12.5 (≈ 26.2 µM) | 12.5 (≈ 26.2 µM) | 6.25 (≈ 13.1 µM) | 25 (≈ 52.5 µM)
Oc1ccc2c(c1)CCCN2CCCC(F)(F)F | > 50 | > 200 | > 50 | > 50 | > 50 | > 50 | > 50
N=C(N)NCCCCOc1ccc2c(c1)CCCN2CCCC(F)(F)F | 6.25 (≈ 16.8 µM) | > 200 | 6.25 (≈ 16.8 µM) | > 50 | > 50 | 6.25 (≈ 16.8 µM) | 25 (≈ 67.1 µM)
CC(C)=CCN1CCCc2cc(O)ccc21 | 50 (≈ 230 µM) | > 200 | 50 (≈ 230 µM) | > 50 | > 50 | 50 (≈ 230 µM) | > 50
Oc1ccc2c(c1)CCCN2 | > 50 | > 200 | > 50 | > 50 | > 50 | > 50 | > 50
CC(C)=CCN1CCCc2cc(OCCCCN3CCCCC3)ccc21 | > 50 | > 200 | > 50 | > 50 | > 50 | > 50 | > 50
CC(C)=CCN1CCCc2cc(OCCCCNC(=N)N)ccc21 | 3.12 (≈ 9.46 µM) | > 200 | 1.56 (≈ 4.72 µM) | > 50 | > 50 | 3.12 (≈ 9.46 µM) | 25 (≈ 75.6 µM)
CCCN1CCCc2cc(O)ccc21 | > 50 | > 200 | > 50 | > 50 | > 50 | > 50 | > 50
CCCCCCCN1CCCc2cc(OCC(=O)OCC)ccc21 | > 50 | > 200 | > 50 | > 50 | > 50 | > 50 | > 50
CC(C)=CCN1CCCc2cc(OCCCBr)ccc21 | 25 (≈ 73.9 µM) | > 200 | 25 (≈ 73.9 µM) | 50 (≈ 148 µM) | 50 (≈ 148 µM) | 25 (≈ 73.9 µM) | > 50
CCCCN1CCCc2cc(OCCCCBr)ccc21 | 6.25 (≈ 18.4 µM) | > 200 | 6.25 (≈ 18.4 µM) | 50 (≈ 147 µM) | > 50 | 12.5 (≈ 36.7 µM) | 50 (≈ 147 µM)
CCCCCN1CCCc2cc(OCC(=O)OCC)ccc21 | > 50 | > 200 | > 50 | > 50 | > 50 | > 50 | > 50
CCCCCCCCCN1CCCc2cc(OCCCCBr)ccc21 | 12.5 (≈ 30.5 µM) | > 200 | 12.5 (≈ 30.5 µM) | 50 (≈ 122 µM) | 50 (≈ 122 µM) | 6.25 (≈ 15.2 µM) | 25 (≈ 60.9 µM)

SMILES | MIC [1] [µg/mL] | HC50 at 1 h [2] [µg/mL] | MIC [3] [µg/mL] | MIC [4] [µg/mL] | MIC [5] [µg/mL] | MIC [6] [µg/mL] | MIC [7] [µg/mL]
CCCN1CCCc2cc(OCCCCNC(=N)N)ccc21 | 12.5 (≈ 41.1 µM) | > 200 | 6.25 (≈ 20.5 µM) | > 50 | > 50 | 12.5 (≈ 41.1 µM) | > 50
CC(C)=CCN1CCCc2cc(OCCCCBr)ccc21 | 25 (≈ 71 µM) | > 200 | 12.5 (≈ 35.5 µM) | > 50 | > 50 | 25 (≈ 71 µM) | > 50
CC(C)=CCN1CCCc2cc(OCCCNC(=N)N)ccc21 | 6.25 (≈ 19.8 µM) | > 200 | 6.25 (≈ 19.8 µM) | > 50 | > 50 | 6.25 (≈ 19.8 µM) | 50 (≈ 158 µM)
CCCCCN1CCCc2cc(O)ccc21 | 25 (≈ 114 µM) | > 200 | 25 (≈ 114 µM) | > 50 | > 50 | 50 (≈ 228 µM) | > 50
CC(C)=CCN1CCCc2cc(OCCCCNCCN(CCN)CCN)ccc21 | 6.25 (≈ 15 µM) | > 200 | 6.25 (≈ 15 µM) | 50 (≈ 120 µM) | > 50 | 12.5 (≈ 29.9 µM) | 50 (≈ 120 µM)
CCCCCN1CCCc2cc(OCCCCBr)ccc21 | 25 (≈ 70.6 µM) | > 200 | 25 (≈ 70.6 µM) | 50 (≈ 141 µM) | 50 (≈ 141 µM) | 25 (≈ 70.6 µM) | > 50
CCCCCCCCCN1CCCc2cc(OCCCCCCCCBr)ccc21 | 50 (≈ 107 µM) | > 200 | 25 (≈ 53.6 µM) | > 50 | > 50 | 25 (≈ 53.6 µM) | > 50
CC(C)=CCC/C(C)=C/CN1CCCc2cc(OCCCCCCCCNC(=N)N)ccc21 | 1.56 (≈ 3.43 µM) | > 200 | 3.12 (≈ 6.87 µM) | 0.78 (≈ 1.72 µM) | 0.78 (≈ 1.72 µM) | 3.12 (≈ 6.87 µM) | 25 (≈ 55 µM)
CCCCCCCN1CCCc2cc(OCCCCBr)ccc21 | 6.25 (≈ 16.3 µM) | > 200 | 6.25 (≈ 16.3 µM) | 12.5 (≈ 32.7 µM) | 25 (≈ 65.4 µM) | 12.5 (≈ 32.7 µM) | 25 (≈ 65.4 µM)
CC(C)=CCN1CCCc2cc(OCCCCCCCCBr)ccc21 | > 50 | > 200 | > 50 | 50 (≈ 122 µM) | 50 (≈ 122 µM) | > 50 | > 50
FC(F)(F)CCCN1CCCc2cc(OCCCCBr)ccc21 | 12.5 (≈ 31.7 µM) | > 200 | 25 (≈ 63.4 µM) | > 50 | > 50 | 25 (≈ 63.4 µM) | > 50
CCCNCCCCOc1ccc2c(c1)CCCN2CC=C(C)C | 25 (≈ 75.6 µM) | > 200 | 25 (≈ 75.6 µM) | > 50 | > 50 | 50 (≈ 151 µM) | > 50
CCCCCCCCCN1CCCc2cc(OCCCCCCCCNC(=N)N)ccc21 | 3.12 (≈ 7.03 µM) | > 200 | 3.12 (≈ 7.03 µM) | 1.56 (≈ 3.51 µM) | 0.78 (≈ 1.75 µM) | 3.12 (≈ 7.03 µM) | 25 (≈ 56.2 µM)
CC(C)=CCN1CCCc2cc(OCCCCCCBr)ccc21 | 25 (≈ 65.7 µM) | > 200 | 25 (≈ 65.7 µM) | 50 (≈ 131 µM) | 50 (≈ 131 µM) | 50 (≈ 131 µM) | > 50
CCCCCN1CCCc2cc(OCC(=O)N[C@@H](CCCNC(=N)N)C(=O)OC)ccc21 | 25 (≈ 55.9 µM) | > 200 | 25 (≈ 55.9 µM) | > 50 | > 50 | 50 (≈ 112 µM) | > 50
C[C@@H]1C/C=C/C=C/C=C/C=C/[C@H](O[C@@H]2O[C@H](C)[C@@H](O)[C@H](N)[C@@H]2O)C[C@@H]2O[C@](O)(C[C@@H](O)C[C@H]3O[C@@H]3/C=C/C(=O)O1)C[C@H](O)[C@H]2C(=O)O [NATAMYCIN] |  |  |  | 6.25 (≈ 9.39 µM) | 6.25 (≈ 9.39 µM) |  | 
